Assays:
[1] = biological target: HIV-1 RT (Human immunodeficiency virus type 1 group M subtype B, UniProt P03366); test: HIV-1 reverse transcriptase assay with homopolymeric template/primers; assay type: biochemical
[2] = test system: herpetic DNA polymerases (HCMV, HSV-1, VZV); test: Herpetic DNA polymerase assays, pooled statements in text; assay type: biochemical
[3] = test system: human DNA polymerases α and β; test: Human DNA polymerase α and β assays, pooled statements in text; assay type: biochemical
[4] = biological target: T1, RB69/ABC5 hybrid DNA polymerase (Escherichia phage RB69, UniProt Q38087, D222A/D327A/F479V/I557M/L561V/L562T/N480A/N558A/R559L/V478W); conditions: cited from earlier work
[5] = biological target: HSV-1 DNA polymerase (Human herpesvirus 1, UniProt P04293); test: Enzyme assay with HSV-1 DNA polymerase; assay type: biochemical
[6] = biological target: VZV DNA polymerase (Varicella-zoster virus, UniProt P09252); test: Enzyme assay with VZV DNA polymerase; assay type: biochemical
[7] = biological target: T2, Human DNA Pol α (Homo sapiens, UniProt P09884); test: Enzyme assay with human DNA polymerase α; assay type: biochemical
T2 sequence (P09884 1-1462): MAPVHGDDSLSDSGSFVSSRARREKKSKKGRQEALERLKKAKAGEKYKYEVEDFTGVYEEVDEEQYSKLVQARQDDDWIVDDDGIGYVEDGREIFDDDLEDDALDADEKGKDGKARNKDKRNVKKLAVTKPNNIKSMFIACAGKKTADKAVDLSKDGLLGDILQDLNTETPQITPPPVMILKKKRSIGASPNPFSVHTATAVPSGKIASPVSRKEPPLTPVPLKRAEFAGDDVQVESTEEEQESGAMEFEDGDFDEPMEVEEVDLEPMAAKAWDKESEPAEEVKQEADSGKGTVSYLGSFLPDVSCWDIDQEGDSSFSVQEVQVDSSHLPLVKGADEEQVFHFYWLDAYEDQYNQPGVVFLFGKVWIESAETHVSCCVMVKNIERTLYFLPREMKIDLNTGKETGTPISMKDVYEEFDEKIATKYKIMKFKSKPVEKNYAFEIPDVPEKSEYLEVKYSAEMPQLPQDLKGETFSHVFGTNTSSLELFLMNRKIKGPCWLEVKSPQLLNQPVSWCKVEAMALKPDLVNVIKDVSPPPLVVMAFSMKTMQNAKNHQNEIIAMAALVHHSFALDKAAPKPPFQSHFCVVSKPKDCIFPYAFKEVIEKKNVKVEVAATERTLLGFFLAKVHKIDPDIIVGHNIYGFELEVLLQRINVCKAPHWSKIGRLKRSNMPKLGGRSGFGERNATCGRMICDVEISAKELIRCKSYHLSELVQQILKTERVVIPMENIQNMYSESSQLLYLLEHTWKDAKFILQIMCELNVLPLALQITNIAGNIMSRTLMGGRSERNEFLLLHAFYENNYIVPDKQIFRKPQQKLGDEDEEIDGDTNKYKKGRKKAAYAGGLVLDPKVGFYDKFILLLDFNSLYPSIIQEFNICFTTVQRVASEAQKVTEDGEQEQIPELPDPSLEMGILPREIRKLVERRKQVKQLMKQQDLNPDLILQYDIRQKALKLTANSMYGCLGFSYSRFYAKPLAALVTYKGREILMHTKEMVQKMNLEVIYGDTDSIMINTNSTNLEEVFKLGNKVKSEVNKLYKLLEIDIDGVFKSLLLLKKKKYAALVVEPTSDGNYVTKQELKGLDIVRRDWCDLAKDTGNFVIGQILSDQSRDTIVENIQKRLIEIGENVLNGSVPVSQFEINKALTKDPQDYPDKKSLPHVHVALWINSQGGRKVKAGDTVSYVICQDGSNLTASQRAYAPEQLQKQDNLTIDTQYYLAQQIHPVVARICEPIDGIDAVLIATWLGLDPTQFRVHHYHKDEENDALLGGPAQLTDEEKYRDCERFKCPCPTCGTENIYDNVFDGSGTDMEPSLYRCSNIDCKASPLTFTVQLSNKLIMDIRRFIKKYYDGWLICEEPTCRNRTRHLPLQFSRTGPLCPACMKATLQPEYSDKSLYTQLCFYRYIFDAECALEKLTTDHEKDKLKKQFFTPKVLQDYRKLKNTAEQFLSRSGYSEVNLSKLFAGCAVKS

[8] = biological target: Human DNA Pol β (Homo sapiens, UniProt P06746); test: Enzyme assay with human DNA polymerase β; assay type: biochemical
[9] = biological target: bacteriophage RB69 DNA polymerase gp43 (WT) (Escherichia phage RB69, UniProt Q38087, D222A/D327A); test: biochemical
[10] = biological target: T1, RB69/ABC5 hybrid DNA polymerase; test: biochemical; set-up: species or system bacteriophage RB69 / HCMV
[11] = biological target: M184I HIV-1 RT (Human immunodeficiency virus type 1 group M subtype B, UniProt P03366, M783I); test: Mutant HIV-1 RT assay
[12] = biological target: Y115F HIV-1 RT (Human immunodeficiency virus type 1 group M subtype B, UniProt P03366, Y714F); test: Mutant HIV-1 RT assay
[13] = biological target: HCMV DNA polymerase (UL54) (Human cytomegalovirus, UniProt P08546); test: Enzyme assay with HCMV DNA polymerase; assay type: biochemical; conditions: IC50 HCMV DNA Pol, activated calf thymus DNA, [3H]dTTP
[14] = IC50 HIV-1 RT Poly rA.dT ([3H]dTTP), Table 7, Poly rA.dT, [3H]dTTP
[15] = IC50 HIV-1 RT Poly rC.dG ([3H]dGTP), Poly rC.dG, [3H]dGTP
[16] = IC50 HIV-1 RT Poly rI.dC ([3H]dCTP), Poly rI.dC, [3H]dCTP
[17] = IC50 HIV-1 RT Poly rU.dA ([3H]dATP), Poly rU.dA, [3H]dATP
[18] = IC50 HIV-1 RT, poly rA.dT template/primer, [3H]dTTP
[19] = IC50 Wild-type HIV-1 RT, Table 8, wild-type RT

T1 sequence (Q38087 whole entry D222A/D327A/V478W/F479V/N480A/I557M/N558A/R559L/L561V/L562T): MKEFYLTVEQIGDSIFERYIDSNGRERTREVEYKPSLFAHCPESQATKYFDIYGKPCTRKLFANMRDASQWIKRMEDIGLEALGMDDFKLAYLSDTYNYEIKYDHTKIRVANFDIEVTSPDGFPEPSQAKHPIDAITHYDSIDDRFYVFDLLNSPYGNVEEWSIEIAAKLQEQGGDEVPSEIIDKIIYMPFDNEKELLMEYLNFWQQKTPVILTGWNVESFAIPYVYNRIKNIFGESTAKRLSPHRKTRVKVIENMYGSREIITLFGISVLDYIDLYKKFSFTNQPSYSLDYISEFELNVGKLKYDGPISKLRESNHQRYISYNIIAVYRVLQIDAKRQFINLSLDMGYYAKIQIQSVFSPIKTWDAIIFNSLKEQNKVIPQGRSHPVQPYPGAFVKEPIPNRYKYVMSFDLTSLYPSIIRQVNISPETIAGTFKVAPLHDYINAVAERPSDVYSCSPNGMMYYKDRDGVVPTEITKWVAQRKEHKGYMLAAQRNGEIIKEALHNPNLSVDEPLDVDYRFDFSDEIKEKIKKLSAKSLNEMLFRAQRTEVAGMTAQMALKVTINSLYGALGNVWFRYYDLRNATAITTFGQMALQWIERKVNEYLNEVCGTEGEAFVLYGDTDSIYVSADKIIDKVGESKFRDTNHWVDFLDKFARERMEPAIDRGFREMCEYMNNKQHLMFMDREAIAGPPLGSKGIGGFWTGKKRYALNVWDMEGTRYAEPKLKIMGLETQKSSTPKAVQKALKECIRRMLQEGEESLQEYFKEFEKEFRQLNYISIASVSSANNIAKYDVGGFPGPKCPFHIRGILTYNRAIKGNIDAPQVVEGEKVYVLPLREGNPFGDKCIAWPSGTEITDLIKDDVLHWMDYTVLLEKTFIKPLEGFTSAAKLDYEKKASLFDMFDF
HSV-1 DNA polymerase, sequence (P04293 whole entry): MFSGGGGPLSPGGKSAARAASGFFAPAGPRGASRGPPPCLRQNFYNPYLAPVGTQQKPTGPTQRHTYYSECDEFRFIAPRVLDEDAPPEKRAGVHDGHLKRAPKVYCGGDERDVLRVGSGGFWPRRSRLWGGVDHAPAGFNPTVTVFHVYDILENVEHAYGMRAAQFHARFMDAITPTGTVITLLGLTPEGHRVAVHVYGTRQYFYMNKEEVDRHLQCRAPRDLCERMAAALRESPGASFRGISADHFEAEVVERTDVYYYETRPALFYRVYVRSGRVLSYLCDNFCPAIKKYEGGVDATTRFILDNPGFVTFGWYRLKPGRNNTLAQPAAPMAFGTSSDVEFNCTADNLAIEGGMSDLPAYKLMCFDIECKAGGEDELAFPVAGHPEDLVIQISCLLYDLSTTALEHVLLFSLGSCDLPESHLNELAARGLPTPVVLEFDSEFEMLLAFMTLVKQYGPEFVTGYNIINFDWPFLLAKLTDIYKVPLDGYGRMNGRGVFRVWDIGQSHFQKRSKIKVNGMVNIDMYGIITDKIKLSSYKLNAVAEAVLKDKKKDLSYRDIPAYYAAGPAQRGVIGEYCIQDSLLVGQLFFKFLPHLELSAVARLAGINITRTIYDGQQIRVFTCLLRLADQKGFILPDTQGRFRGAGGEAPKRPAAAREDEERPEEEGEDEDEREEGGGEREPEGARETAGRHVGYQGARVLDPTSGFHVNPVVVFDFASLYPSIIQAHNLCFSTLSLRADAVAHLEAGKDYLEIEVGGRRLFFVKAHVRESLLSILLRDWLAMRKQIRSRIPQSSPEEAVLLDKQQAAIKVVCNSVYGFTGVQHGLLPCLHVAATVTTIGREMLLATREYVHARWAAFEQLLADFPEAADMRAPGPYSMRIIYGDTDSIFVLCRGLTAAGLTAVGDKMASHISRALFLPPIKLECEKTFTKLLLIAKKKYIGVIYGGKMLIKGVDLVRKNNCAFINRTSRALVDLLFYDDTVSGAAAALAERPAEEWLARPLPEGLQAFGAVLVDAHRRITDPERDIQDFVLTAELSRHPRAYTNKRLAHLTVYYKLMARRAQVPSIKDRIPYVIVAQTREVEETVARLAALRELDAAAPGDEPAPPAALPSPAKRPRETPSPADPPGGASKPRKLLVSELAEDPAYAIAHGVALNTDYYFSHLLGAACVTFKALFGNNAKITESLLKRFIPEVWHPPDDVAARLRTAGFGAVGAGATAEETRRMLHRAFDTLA
HCMV DNA polymerase (UL54), sequence (P08546 whole entry): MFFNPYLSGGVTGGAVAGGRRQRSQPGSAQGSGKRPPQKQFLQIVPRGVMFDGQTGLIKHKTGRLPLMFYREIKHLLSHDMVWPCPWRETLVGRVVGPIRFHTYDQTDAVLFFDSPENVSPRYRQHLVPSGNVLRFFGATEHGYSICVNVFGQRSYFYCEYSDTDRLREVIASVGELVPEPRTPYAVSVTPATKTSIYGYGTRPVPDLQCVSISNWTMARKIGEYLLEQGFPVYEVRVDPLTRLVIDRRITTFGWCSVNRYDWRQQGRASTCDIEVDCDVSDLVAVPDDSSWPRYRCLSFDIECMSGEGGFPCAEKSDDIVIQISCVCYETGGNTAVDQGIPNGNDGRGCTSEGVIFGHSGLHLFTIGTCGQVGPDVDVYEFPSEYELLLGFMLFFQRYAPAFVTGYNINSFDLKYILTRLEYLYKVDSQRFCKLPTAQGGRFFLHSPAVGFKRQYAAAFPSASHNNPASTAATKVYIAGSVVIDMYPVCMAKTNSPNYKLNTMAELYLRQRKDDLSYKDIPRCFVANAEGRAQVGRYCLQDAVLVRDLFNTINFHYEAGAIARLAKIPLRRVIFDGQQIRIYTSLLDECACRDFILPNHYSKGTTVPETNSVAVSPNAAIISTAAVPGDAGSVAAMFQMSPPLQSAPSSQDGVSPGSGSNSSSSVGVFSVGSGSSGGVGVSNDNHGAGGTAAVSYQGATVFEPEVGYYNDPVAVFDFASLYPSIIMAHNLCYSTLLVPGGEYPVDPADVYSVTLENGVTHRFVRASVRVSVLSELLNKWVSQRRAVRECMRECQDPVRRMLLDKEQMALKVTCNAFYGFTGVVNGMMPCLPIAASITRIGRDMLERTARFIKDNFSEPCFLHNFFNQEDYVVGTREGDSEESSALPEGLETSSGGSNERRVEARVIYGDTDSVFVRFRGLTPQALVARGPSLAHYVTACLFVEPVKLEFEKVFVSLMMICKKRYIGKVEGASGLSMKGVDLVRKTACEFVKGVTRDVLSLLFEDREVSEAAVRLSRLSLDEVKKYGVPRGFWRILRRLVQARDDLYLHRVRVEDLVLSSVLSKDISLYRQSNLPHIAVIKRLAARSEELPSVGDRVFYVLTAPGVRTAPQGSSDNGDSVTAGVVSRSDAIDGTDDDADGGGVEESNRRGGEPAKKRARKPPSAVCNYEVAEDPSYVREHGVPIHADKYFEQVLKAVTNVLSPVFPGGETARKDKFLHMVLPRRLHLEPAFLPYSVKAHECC
VZV DNA polymerase, sequence (P09252 whole entry): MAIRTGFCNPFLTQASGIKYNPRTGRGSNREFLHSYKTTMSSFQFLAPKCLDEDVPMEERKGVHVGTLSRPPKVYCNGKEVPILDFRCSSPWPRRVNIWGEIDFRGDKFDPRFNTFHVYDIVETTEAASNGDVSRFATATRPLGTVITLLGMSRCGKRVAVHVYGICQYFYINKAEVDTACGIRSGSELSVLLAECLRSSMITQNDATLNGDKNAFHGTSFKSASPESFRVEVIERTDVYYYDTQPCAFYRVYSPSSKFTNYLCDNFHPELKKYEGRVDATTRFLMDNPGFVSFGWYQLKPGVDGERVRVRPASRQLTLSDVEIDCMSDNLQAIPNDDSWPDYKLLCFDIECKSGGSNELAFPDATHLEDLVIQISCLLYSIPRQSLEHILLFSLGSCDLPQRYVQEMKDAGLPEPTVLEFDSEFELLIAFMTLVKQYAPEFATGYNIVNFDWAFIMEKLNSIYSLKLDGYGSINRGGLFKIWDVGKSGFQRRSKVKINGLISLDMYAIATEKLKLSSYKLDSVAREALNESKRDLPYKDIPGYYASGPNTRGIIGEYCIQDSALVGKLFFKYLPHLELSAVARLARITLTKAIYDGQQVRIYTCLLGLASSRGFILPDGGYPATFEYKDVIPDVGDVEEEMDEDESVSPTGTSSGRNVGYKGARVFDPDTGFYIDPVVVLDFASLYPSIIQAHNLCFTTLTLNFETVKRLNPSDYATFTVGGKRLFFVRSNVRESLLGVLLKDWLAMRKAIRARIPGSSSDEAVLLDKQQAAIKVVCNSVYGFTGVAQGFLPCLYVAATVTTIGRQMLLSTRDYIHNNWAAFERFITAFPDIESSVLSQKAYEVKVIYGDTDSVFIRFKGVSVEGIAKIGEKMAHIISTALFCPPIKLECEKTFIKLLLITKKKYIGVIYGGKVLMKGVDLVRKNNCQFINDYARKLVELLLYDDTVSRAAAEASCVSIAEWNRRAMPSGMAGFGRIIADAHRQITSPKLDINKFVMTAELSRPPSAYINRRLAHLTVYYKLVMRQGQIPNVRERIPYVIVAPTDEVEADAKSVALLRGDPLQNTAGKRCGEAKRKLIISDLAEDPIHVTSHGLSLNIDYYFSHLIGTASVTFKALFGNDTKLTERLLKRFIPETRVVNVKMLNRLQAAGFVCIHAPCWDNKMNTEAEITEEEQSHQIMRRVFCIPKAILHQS
bacteriophage RB69 DNA polymerase gp43 (WT), sequence (Q38087 whole entry D222A/D327A): as the sequence (Q38087 whole entry D222A/D327A/V478W/F479V/N480A/I557M/N558A/R559L/L561V/L562T) above, with W478V, V479F, A480N, M557I, A558N, L559R, V561L, T562L counted along it

SMILES	inhibitory activity against herpetic DNA polymerases (in words) [2]	inhibitory activity against human DNA polymerases (in words) [3]	sensitivity of chimera RB69/ABC5 to active-site inhibitors [4]	IC50 [1, 14]	IC50 [1, 15]	IC50 [1, 16]	IC50 [1, 17]	IC50 [1, 18]	IC50 [1, 19]	IC50 [5]	IC50 [6]	IC50 [7]	IC50 [8]	IC50 [11]	IC50 [12]	IC50 [13]	further results
O=C(O)C(OC/C=C\CO)P(=O)(O)O (stereo not drawn) [Compound 6n, 2-Cis-((4-hydroxybut-2-en-1-yl)oxy)-2-phosphonoacetic acid]	insensitive	insensitive															inhibitory activity against HIV-1 RT (in words) [1]: insensitive
Nc1nc2c(ncn2COCCOP(=O)(O)OP(=O)(O)OP(=O)(O)O)c(=O)[nH]1 [acyclovir triphosphate]			sensitive														
Cc1cn(C/C=C\COC(C(=O)O)P(=O)(O)O)c(=O)[nH]c1=O (stereo not drawn) [Compound 6g, cis-2-(4-(2,4-Dioxo-5-methyl-pyrimidin-1-yl)but-2-enyloxy)-2-phosphonoacetic acid]				235 ± 16 µM	> 500 µM	> 500 µM	≥ 500 µM	235 ± 16 µM	320 ± 89 µM	3.7 ± 1.7 µM	2.2 ± 0.1 µM	14 ± 7 µM	> 500 µM	> 2500 µM	655 ± 409 µM		loss of anti-HIV-1 RT activity compared to prototype thymine-α-CNP ([1]; ratio of IC50 vs thymine-α-CNP): ~ 600 fold; IC50 [9]: > 100 µM; IC50 [10]: > 100 µM; selectivity for herpetic DNA polymerases compared to human DNA polymerase α ([2]; herpetic vs human DNA polymerase α): 4- to 7 fold; higher potency against herpetic DNA polymerases compared to butyl analogue 6h ([2]; ratio vs 6h): 8- to 20 fold; superior activity against herpetic DNA polymerases than against HIV-1 RT ([2]; selectivity herpetic over HIV-1 RT): ~ 100 fold
Nc1nc2c(ncn2C/C=C\COC(C(=O)O)P(=O)(O)O)c(=O)[nH]1 (stereo not drawn) [Compound 6l, 2-Cis-(4-(2-amino-6-oxo-1H-purin-9(6H)-yl)but-2-enyloxy)-2-phosphonoacetic acid]				≥ 500 µM	> 500 µM	> 500 µM	369 ± 48 µM	≥ 500 µM	≥ 1250 µM	2.1 ± 2.3 µM	2.9 µM	365 ± 91 µM	> 500 µM	> 1250 µM	≥ 1250 µM	3.6 ± 0.6 µM	
Cc1cn(C[C@@H]2CCC[C@H]2COC(C(=O)O)P(=O)(O)O)c(=O)[nH]c1=O (relative stereo) [Compound 6o]	poor, if any, inhibitory activity	poor, if any, inhibitory activity															
O=C(O)P(=O)(O)O [PFA, phosphonoformic acid, reference compound]			sensitive							0.44 ± 0.25 µM		7.7 ± 6.5 µM	> 100 µM			9.8 ± 5.8 µM	IC50 ([1]; IC50 HIV-1 RT): 0.34 ± 0.01 µM; IC50 ([1]; IC50 HIV-1 RT Poly rA.dT ([3H]dTTP)): 0.34 ± 0.01 µM; IC50 ([1]; IC50 HIV-1 RT Poly rC.dG ([3H]dGTP)): 17 ± 2 µM; IC50 ([1]; IC50 HIV-1 RT Poly rI.dC ([3H]dCTP)): 6.8 ± 2 µM; IC50 ([1]; IC50 HIV-1 RT Poly rU.dA ([3H]dATP)): 0.75 ± 0.13 µM
